According to publication PMC12275099, “VX-445 (elexacaftor) inhibits chloride secretion across human bronchial epithelial cells by directly blocking KCa3.1 channels” (PNAS Nexus, 2025):
“And” between values parts separate entries of the source, which are not always exact repeats. Identical values can stand only once.

Key:
[1] = target: T1, KCa3.1 (Homo sapiens, UniProt O15554); test: Excised inside-out patch-clamp on HEK-KCa3.1; assay type: biochemical; conditions: for relative remaining current: Fig 3I single experiments
T1 construct: expressed in transfected cells
Description: Our Isc results are consistent with VX-445 inhibiting KCa3.1 in HBEs. To directly assess this possibility, we initially carried out whole-cell patch-clamp studies on undifferentiated HBEs. […] Upon application of 10 µM VX-445, a majority of this current was inhibited, averaging 87 ± 4% (n = 3, P < 0.005; Fig. 3B). A summary of the current–voltage (I–V) relationship—normalized to cell capacitance—is shown in Fig. 3C, which also includes the whole-cell I–V in the presence of Tram-34. […] To ensure isolation of KCa3.1 currents and to more fully characterize this VX-445-dependent inhibition of KCa3.1, we utilized HEK cells heterologously expressing KCa3.1 (HEK-KCa3.1). Initially, we confirmed our results from HBEs, using whole-cell recordings, as above. […] In seven experiments, this inhibition averaged 58 ± 7% (P < 0.005). […] It is well recognized that drugs are carried to their targets in the blood bound to albumin, which ranges from 3.4 to 5.4%. Thus, we determined whether VX-445 (10 µM) would inhibit KCa3.1 expressed in HEK cells in the presence of 3.4% albumin. In four experiments, VX-445 inhibited an average of 51 ± 17% of the whole-cell KCa3.1 current, which is not different from that observed in the absence of albumin. To confirm the direct effect of VX-445 on KCa3.1, we utilized the excised, inside-out patch-clamp technique. The patch was then exposed to DCEBIO (100 µM) to further activate the channels ([34–37])—analogous to our Isc studies in HBEs. […] In three experiments, VX-445 inhibited an average of 63 ± 6% of the KCa3.1 current. Based on these experiments, we determined the apparent inhibitory constant, Ki for VX-445. For these experiments, patches were excised into saturating Ca^2+ (3 µM) to ensure maximal KCa3.1 activation. These studies were carried out in the absence of DCEBIO to eliminate the possibility that the inhibition observed was due to competition for the DCEBIO-binding site.
HEK cells stably expressing KCa3.1 (IK1, SK4), KCa2.3 (SK3), and KCa2.2 (SK2) were generated and cultured as previously described by us ([37], [66–71]).
HEK cells expressing the channel of interest were plated onto poly-L-lysine-coated glass coverslips 1–2 days prior to patch-clamp analysis. Electrophysiological recordings in the excised, inside-out, and whole-cell patch-clamp configurations were performed as recently described ([14]). For excised patch-clamp recordings, the pipette solution contained (in mM): 140 K-gluconate, 5 KCl, 1 CaCl2, 1 MgCl2, and 10 HEPES. The pH was adjusted to 7.2 with KOH. The bath solution contained (in mM): 145 K-gluconate, 5 KCl, 1.3 MgCl2, 10 HEPES, and 1 EGTA. Sufficient CaCl2 was added to obtain the desired free Ca^2+ concentration at a pH of 7.2 (adjusted with KOH). When recording KCa3.1 channels, ATP (300 µM) was added to the bath to diminish channel rundown ([73]). All recordings were carried out at a voltage of −100 mV, referenced to the extracellular compartment, as is standard. The apparent Ki and Hill coefficient for each CFTR corrector on KCa3.1, KCa2.3, and KCa2.2 were determined during a continuous recording by step-wise addition of increasing concentrations of compound and fitting the resultant relative remaining current to a Hill equation (Prism v. 10.1.0). The zero current level was determined by the addition of a 0 Ca^2+ solution (zero-added Ca^2+ plus 1 mM EGTA) at the end of the experiment. In the case of KCa3.1, TRAM-34, a known inhibitor of KCa3.1 ([45]), was used to confirm expression of the channel. For whole-cell experiments, pipettes contained (in mM): 145 K-gluconate, 10 EGTA, 7.5 CaCl2, 2 MgCl2, 3 mM NaATP, and 10 HEPES. The bath solution contained (in mM): 140 K-gluconate, 5 KCl, 1.0 MgCl2, 10 HEPES, and 2 CaCl2. Current–voltage relationships were determined by stepping from a holding potential of −80 mV to +80 mV in 20 mV increments for 400 ms. […]

[2] = tested on: WT CFTR HBEs; test: Ussing chamber Isc, DCEBIO-induced Cl- secretion; assay type: cell-based, human; conditions: VX-445 10 µM
Source text: Primary human bronchial epithelial cells (HBEs) were collected from unused or discarded samples from the Center for Organ Recovery and Education via the University of Pittsburgh Pulmonary, Allergy, Critical Care, and Sleep Medicine Lung Biobank and Repository. All experimental procedures involving the use of HBEs were approved by the institutional review board (IRB STUDY19090084) and the Committee for Oversight of Research and Clinical Training Involving Decedents (CORID number 451) at the University of Pittsburgh. At all times, authors were blind to the identity of HBE donors. HBEs were cultured using the Vertex method ([72]). Studies were carried out on WT CFTR HBEs from 11 ([13]) donors and homozygous F508del/F508del CFTR HBEs from five ([5]) separate donors. HBEs were plated on Costar Transwell permeable supports ([…], 6.5 mm insert, polyester membrane, Corning) and grown at an air–liquid interface for 5+ weeks in HBE differentiation medium containing 2% Ultroser-G. Basolateral media were replaced three times per week. For whole-cell patch-clamp studies, HBEs were maintained in BronchiaLife airway media (LifeLine Cell Technology, LS-1047) and plated onto poly-L-lysine-coated coverslips (see below).
Costar Transwell inserts were mounted in a modified Ussing chamber (P2300, Physiologic Instruments) and the monolayers continuously short-circuited (VCC MC8, Physiologic Instruments) by forcing the transepithelial voltage to 0 mV. Short-circuit current (Isc) measurements were taken in symmetric solutions, containing (in mM): 120 NaCl, 25 NaHCO3, 3.3 KH2PO4, 0.8 K2HPO4, 1.2 CaCl2, 1.2 MgCl2, and 10 glucose. The pH of the solution is 7.4 when gassed with 95% O2–5% CO2 at 37°C. Compounds were added cumulatively following the establishment of a new stable current response. Amiloride was added to the apical membrane, while all other compounds were added to both membranes due to their lipophilic nature. In all experiments, 10 µM amiloride was used to inhibit sodium absorption. Percent inhibition was calculated as the change in Isc (ΔIsc) between the forskolin or DCEBIO stable current level and the Isc following addition of the compound being assessed divided by the ΔIsc between the stable forskolin- or DCEBIO-induced Isc and the Isc following bumetanide addition.

Q: For Cc1nn(C)cc1S(=O)(=O)NC(=O)c1ccc(-n2ccc(OCC(C)(C)C(F)(F)F)n2)nc1N1C[C@@H](C)CC1(C)C [VX-445, elexacaftor], which Hill coefficient ([1]; 3 µM free Ca2+, absence of DCEBIO) is on record?
A: The Hill coefficient was 1.2.

Q: What about the Ki ([1]; 3 µM free Ca2+, absence of DCEBIO, Hill fit, n = 4, read-out: apparent Ki) of the same compound?
A: The Ki was 8 ± 2 µM.

Q: What about the inhibition at 10 µM ([1]; 10 µM compound after DCEBIO 100 µM, 1 µM free Ca2+, three experiments, read-out: inhibition of KCa3.1 current in excised patch) of the same compound?
A: Its inhibition at 10 µM is 63 ± 6%.

Q: And the “selectivity among KCNN gene family members” value ([1]; KCa3.1 versus KCa2.2 and KCa2.3)?
A: Its value is “exhibits selectivity for KCa3.1 over KCa2.x channels”.

Q: What about the relative remaining current ([1]; [VX-445] 0.1) of the same compound?
A: The relative remaining current was 100.

Q: What about the relative remaining current ([1]; [VX-445] 1) of the same compound?
A: Its relative remaining current is 86 and 95 and 100 and 83.

Q: And the relative remaining current ([1]; [VX-445] 3)?
A: Its relative remaining current is 68 and 80 and 93 and 62.

Q: And the inhibition at 10 µM ([2]; Homo sapiens, four donors, n = 12 (TRAM-34 series), read-out: inhibition of the DCEBIO-induced current)?
A: The inhibition at 10 µM was 69 ± 3%.

Q: And the “decrease of the DCEBIO-induced Cl- current” value ([2]; n = 19)?
A: The value was 54 ± 2%.
